Results from US20240024273A1, “TOPICAL ADMINISTRATION OF 2-(DIETHYLAMINO)ETHYL 2-(4-ISOBUTYLPHENYL)PROPRIONATE FOR TREATMENT OF DISEASES” (TECHFIELDS PHARMA CO., LTD., priority 2020, published 2024).
Read-outs that look alike come from different tables or passages of the source.

What was measured:
[1] = Phase 1 clinical study: plasma pharmacokinetics of prodrug and ibuprofen; assay type: in vivo, human; conditions: for AUC0-12: read-out: prodrug AUC0-12; for AUC(0-t): read-out: prodrug AUClast; for Cmax: read-out: prodrug Cmax; for Tmax: read-out: prodrug Tmax, median (range); for half-life: read-out: prodrug t1/2 (converted)
Description: Following a 5-day washout period, 2-(diethylamino)ethyl 2-(4-isobutylphenyl)propionate was administered b.i.d. during Days 6-11, and a morning dose only was administered to Day 12. Blood samples were collected for PK analysis over the 120-hour post-dose period following the Day 12 dose. Additionally, pre-dose blood samples were collected on Day 7 through Day 11 to evaluate steady-state status.
The same study procedures were followed as described in Part 1.
For single dose PK, serial blood samples were collected on Day 1 dose at the following time points: 0 (pre-dose), 0.25, 0.5, 0.75, 1, 1.5, 2, 2.5, 3, 4, 5, 6, 8, 10, 12, 18, 24, 48, 72, 96 and 120 hours post-dose.
For multiple-dose PK, serial blood samples were collected on Day 12 at the following time points: 0 (pre-dose), 0.25, 0.5, 0.75, 1, 1.5, 2, 2.5, 3, 4, 5, 6, 8, 10, 12, 18, 24, 48, 72, 96 and 120 hours post-dose.
The relative bioavailability of the single dose 70 mg topical application vs. 70 mg spray application was determined based on AUCtau, AUCinf and Cmax. The 90% confidence intervals (CIs) on the ratio of topical application vs. spray application were calculated.

[2] = tested on: Osteoarthritis Induced by Transection of the Anterior Cruciate Ligament (ACL); assay: Osteoarthritis induced by transection of the anterior cruciate ligament (I), treatment 4-10 weeks post-surgery; assay type: in vivo, SD Rats; conditions: transdermal; did not reach statistical significance
[3] = human, plasma, topical or ocular, 17.5 mg, Day 1, 17.5 mg topical
[4] = human, plasma, topical or ocular, 17.5 mg, Day 12, 17.5 mg b.i.d. topical
[5] = human, plasma, topical or ocular, 35 mg, Day 1, 35 mg topical
[6] = human, plasma, topical or ocular, 35 mg, Day 12, 35 mg b.i.d. topical
[7] = human, plasma, topical or ocular, 70 mg, Day 1, 70 mg topical
[8] = human, plasma, topical or ocular, 70 mg, Day 12, 70 mg b.i.d. topical
[9] = human, plasma, topical or ocular, 140 mg, Day 1, 140 mg topical
[10] = human, plasma, topical or ocular, 140 mg, Day 12, 140 mg b.i.d. topical
[11] = human, plasma, topical or ocular, 280 mg, Day 1, 280 mg topical
[12] = human, plasma, topical or ocular, 280 mg, Day 12, 280 mg b.i.d. topical
[13] = human, plasma, topical, 70 mg, Day 1, 70 mg spray
[14] = human, plasma, topical, 70 mg, Day 12, 70 mg b.i.d. spray

Question: Which results are given for CCN(CC)CCOC(=O)C(C)c1ccc(CC(C)C)cc1 (stereo not drawn) [2-(diethylamino)ethyl 2-(4-isobutylphenyl)propionate]?
Answer: dose proportionality of prodrug and ibuprofen Cmax and AUC0-last ([1]; 17.5 mg to 280 mg, single and multiple): did not increase in a dose-proportional manner; prodrug mean Cmax after 7 days b.i.d., increase ([1]; 140 mg and 280 mg doses): about 2 fold; prodrug Kel ([1]; Day 12, 17.5 mg b.i.d. topical): 0.0241 (N/A) 1/h; prodrug Kel ([1]; Day 12, 70 mg b.i.d. topical): 0.0656 (N/A) 1/h; prodrug Kel ([1]; Day 12, 140 mg b.i.d. topical): 0.0398 (N/A) 1/h; prodrug Kel ([1]; Day 12, 280 mg b.i.d. topical): 0.0374 (0.0310) 1/h; conversion of absorbed prodrug to ibuprofen ([1]; human, in vivo): > 99%; AUC0-12 [1, 3]: 0.837 ng·h/mL; AUC(0-t) [1, 3]: 1.45 ng·h/mL; Cmax [1, 3]: 0.158 ng/mL; Tmax [1, 3]: 8 h; AUC0-12 [1, 4]: 0.809 ng·h/mL; AUC(0-t) [1, 4]: 1.31 ng·h/mL; Cmax [1, 4]: 0.092 ng/mL; Tmax [1, 4]: 8 h; AUC0-12 [1, 5]: 0.34 ng·h/mL; AUC(0-t) [1, 5]: 0.864 ng·h/mL; Cmax [1, 5]: 0.0862 ng/mL; Tmax [1, 5]: 11 h; AUC0-12 [1, 6]: 1.21 ng·h/mL; AUC(0-t) [1, 6]: 2.29 ng·h/mL; Cmax [1, 6]: 0.153 ng/mL; Tmax [1, 6]: 5.12 h; AUC0-12 [1, 7]: 0.836 ng·h/mL; AUC(0-t) [1, 7]: 1.99 ng·h/mL; Cmax [1, 7]: 0.16 ng/mL; Tmax [1, 7]: 10 h; AUC0-12 [1, 8]: 1.1 ng·h/mL; AUC(0-t) [1, 8]: 1.49 ng·h/mL; Cmax [1, 8]: 0.162 ng/mL; Tmax [1, 8]: 3.5 h; AUC0-12 [1, 9]: 0.478 ng·h/mL; AUC(0-t) [1, 9]: 1.45 ng·h/mL; Cmax [1, 9]: 0.116 ng/mL; Tmax [1, 9]: 18 h; AUC0-12 [1, 10]: 1.82 ng·h/mL; AUC(0-t) [1, 10]: 3.6 ng·h/mL; Cmax [1, 10]: 0.305 ng/mL; Tmax [1, 10]: 2.5 h; AUC0-12 [1, 11]: 0.675 ng·h/mL; AUC(0-t) [1, 11]: 4.48 ng·h/mL; Cmax [1, 11]: 0.233 ng/mL; Tmax [1, 11]: 18 h; AUC0-12 [1, 12]: 3.71 ng·h/mL; AUC(0-t) [1, 12]: 11.6 ng·h/mL; Cmax [1, 12]: 0.505 ng/mL; Tmax [1, 12]: 0.25 h; half-life ([1]; human, plasma, topical or ocular, Day 12, 17.5 mg b.i.d. topical): 28.8 h; half-life ([1]; human, plasma, topical or ocular, Day 12, 70 mg b.i.d. topical): 10.6 h; half-life ([1]; human, plasma, topical or ocular, Day 12, 140 mg b.i.d. topical): 17.4 h; AUC(0-inf) ([1]; human, plasma, topical or ocular, Day 12, 280 mg b.i.d. topical, read-out: prodrug AUCinf): 18.1 ng·h/mL; half-life ([1]; human, plasma, topical or ocular, Day 12, 280 mg b.i.d. topical): 37.8 h; AUC0-12 [1, 13]: 0.514 ng·h/mL; AUC(0-t) [1, 13]: 0.947 ng·h/mL; Cmax [1, 13]: 0.119 ng/mL; Tmax [1, 13]: 10 h; AUC0-12 [1, 14]: 1.06 ng·h/mL; AUC(0-t) [1, 14]: 2.62 ng·h/mL; Cmax [1, 14]: 0.185 ng/mL; Tmax [1, 14]: 3 h; relative bioavailability of spray vs topical application (plasma ibuprofen) ([1]; single application, 70 mg): lower; time by which all subjects had measurable plasma prodrug levels ([1]; topical application): ≤ 3 hours post-dose; severity of osteoarthritic degeneration (histopathology) [2]: showed recognizable reduction in the severity of osteOArthritic
